From PMC9986241 (Signal Transduction and Targeted Therapy, 2023)
Values belong to the molecule of their own block, whether it stands above or below them.

Legend:
[1] = tested on: normal human dermal fibroblasts (NHDF); experiment: Cytotoxicity MTT assay; format: cell-based; settings: 0, 12.5, 25, 50 nM
Protocol: (§1) The synergism and antagonism (CI value) were determined and analyzed using CompuSyn 1.0.
(§2) For cytotoxicity test, normal NHDF (5000 cells/well) and NHEM cell line (3000 cells/well) were planted into 96-well plates. For cell proliferation assay, A375 (1500 cells/well), SK-MEL-28 (3000 cells/well), SK-MEL-2 (4000 cells/well), and HCT116 (1500 cells/well) were planted into 96-well plates, determined concentration of drug was added after culture for 24 h. The viability of the cells was detected within 72 h using MTT solution (5 mg/mL). The absorbance at 570/490 nm was quantified by the use of the microplate reader.

[2] = tested on: normal human epidermal melanocytes (NHEM); experiment: Cytotoxicity MTT assay; format: cell-based; settings: 0, 12.5, 25, 50 nM
Protocol: as §1, §2

[3] = molecular target: T1, MEK2(h) (Homo sapiens, UniProt P36507); experiment: KinaseProfiler enzyme profiling; format: biochemical
T1 construct: purchased Eurofins KinaseProfiler
Summary of the method: (§3)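 A 70-kinase in vitro panel received erianin at 100 nM; measurements were repeated twice.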

[4] = molecular target: T2, Fgr(h) (Homo sapiens, UniProt P09769); experiment: KinaseProfiler enzyme profiling; format: biochemical; settings: 100 nM
T2 construct: purchased Eurofins KinaseProfiler
Summary of the method: (§4)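 Duplicate in vitro measurements were made for each of 70 profiled kinases exposed to erianin at a fixed 100 nM.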

[5] = molecular target: T3, eEF-2K(h) (Homo sapiens, UniProt O00418); experiment: KinaseProfiler enzyme profiling; format: biochemical; settings: 100 nM
T3 construct: purchased Eurofins KinaseProfiler
T3 sequence (O00418 whole entry): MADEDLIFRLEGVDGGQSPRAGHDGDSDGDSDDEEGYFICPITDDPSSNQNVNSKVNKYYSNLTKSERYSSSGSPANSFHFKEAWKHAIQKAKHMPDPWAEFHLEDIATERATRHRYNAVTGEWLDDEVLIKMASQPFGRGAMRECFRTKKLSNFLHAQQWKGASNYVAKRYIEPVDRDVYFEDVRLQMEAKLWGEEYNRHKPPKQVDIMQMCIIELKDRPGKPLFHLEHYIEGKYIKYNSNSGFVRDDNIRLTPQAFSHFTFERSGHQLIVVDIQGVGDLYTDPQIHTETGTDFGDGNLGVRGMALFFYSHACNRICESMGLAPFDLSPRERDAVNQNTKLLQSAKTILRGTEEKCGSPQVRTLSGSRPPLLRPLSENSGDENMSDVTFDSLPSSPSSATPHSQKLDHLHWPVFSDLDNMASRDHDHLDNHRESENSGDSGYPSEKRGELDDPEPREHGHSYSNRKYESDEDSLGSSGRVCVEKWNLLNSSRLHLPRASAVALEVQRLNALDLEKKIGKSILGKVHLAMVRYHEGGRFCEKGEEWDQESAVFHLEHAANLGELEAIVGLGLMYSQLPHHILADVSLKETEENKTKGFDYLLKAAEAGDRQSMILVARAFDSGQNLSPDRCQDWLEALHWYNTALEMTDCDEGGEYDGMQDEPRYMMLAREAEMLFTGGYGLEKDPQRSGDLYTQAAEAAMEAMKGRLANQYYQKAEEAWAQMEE
Summary of the method: as §4

[6] = molecular target: T4, EphA1(h) (Homo sapiens, UniProt P21709); experiment: KinaseProfiler enzyme profiling; format: biochemical; settings: 100 nM
T4 construct: purchased Eurofins KinaseProfiler
Summary of the method: as §4

[7] = molecular target: T5, SGK(h) (Homo sapiens, UniProt O00141); experiment: KinaseProfiler enzyme profiling; format: biochemical; settings: 100 nM
T5 construct: purchased Eurofins KinaseProfiler
T5 sequence (O00141 whole entry): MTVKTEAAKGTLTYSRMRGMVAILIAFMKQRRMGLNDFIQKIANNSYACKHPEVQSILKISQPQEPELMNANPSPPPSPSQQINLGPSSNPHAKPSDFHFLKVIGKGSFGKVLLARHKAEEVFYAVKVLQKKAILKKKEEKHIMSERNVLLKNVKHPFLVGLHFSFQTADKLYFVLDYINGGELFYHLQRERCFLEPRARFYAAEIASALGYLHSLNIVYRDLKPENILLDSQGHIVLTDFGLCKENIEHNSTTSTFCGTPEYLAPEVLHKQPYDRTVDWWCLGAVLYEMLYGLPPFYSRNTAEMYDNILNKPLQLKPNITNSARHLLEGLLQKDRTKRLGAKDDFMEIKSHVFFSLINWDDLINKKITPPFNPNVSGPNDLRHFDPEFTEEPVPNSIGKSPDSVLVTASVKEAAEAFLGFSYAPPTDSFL
Summary of the method: as §4

[8] = molecular target: T6, Rsk3(h) (Homo sapiens, UniProt Q15349); experiment: KinaseProfiler enzyme profiling; format: biochemical; settings: 100 nM
T6 construct: purchased Eurofins KinaseProfiler
Summary of the method: as §4

[9] = molecular target: T7, KDR(h) (Homo sapiens, UniProt P35968); experiment: KinaseProfiler enzyme profiling; format: biochemical; settings: 100 nM
T7 construct: purchased Eurofins KinaseProfiler
Summary of the method: as §4

[10] = molecular target: T8, Rsk1(h) (Homo sapiens, UniProt Q15418); experiment: KinaseProfiler enzyme profiling; format: biochemical
T8 construct: purchased Eurofins KinaseProfiler
T8 sequence (Q15418 whole entry): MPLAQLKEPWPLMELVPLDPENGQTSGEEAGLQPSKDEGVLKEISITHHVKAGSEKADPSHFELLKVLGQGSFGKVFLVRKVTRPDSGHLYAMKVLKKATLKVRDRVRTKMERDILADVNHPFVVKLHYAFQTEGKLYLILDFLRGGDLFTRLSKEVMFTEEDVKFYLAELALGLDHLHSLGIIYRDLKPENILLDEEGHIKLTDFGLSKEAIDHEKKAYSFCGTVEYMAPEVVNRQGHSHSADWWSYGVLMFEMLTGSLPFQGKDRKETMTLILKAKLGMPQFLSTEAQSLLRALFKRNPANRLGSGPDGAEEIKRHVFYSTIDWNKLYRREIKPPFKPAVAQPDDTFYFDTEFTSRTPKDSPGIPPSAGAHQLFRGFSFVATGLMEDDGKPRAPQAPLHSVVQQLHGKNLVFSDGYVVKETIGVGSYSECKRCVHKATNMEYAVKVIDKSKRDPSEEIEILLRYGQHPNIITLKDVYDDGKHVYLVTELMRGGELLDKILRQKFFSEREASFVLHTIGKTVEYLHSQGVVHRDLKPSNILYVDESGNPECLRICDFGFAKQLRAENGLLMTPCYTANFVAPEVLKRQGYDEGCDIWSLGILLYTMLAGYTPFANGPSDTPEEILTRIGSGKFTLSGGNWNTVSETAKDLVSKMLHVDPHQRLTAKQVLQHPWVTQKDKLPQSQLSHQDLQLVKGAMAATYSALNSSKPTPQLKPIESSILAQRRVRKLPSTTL
Summary of the method: as §3

[11] = Pharmacokinetic assay; format: in vivo, Kunming mice; settings: Kunming, mouse, plasma; oral gavage 50 mg/kg vs tail vein injection 25 mg/kg
From the text: For pharmacokinetic study of erianin, LC-MS/MS was implemented to monitor the plasma concentration over times and associated parameters. Chromatographic separation was obtained on an ZORBAX SB-C18 column (3.5 μm, 3.0 × 100 mm). 85% acetonitrile was selected as the mobile phase. The conditions of ESI source were optimized as follows: Spray voltage 4000 V; nitrogen for dying with a flow rate of 11 L/min. Detect the selected reaction monitoring mode for quantification, m/z 315.0 > 180.8 for IS and m/z 319.1 > 150.9 for erianin, respectively. 2′-Hydroxy-4,4′,6′-trimethoxychalcone (500 ng/mL) was selected as internal standard. After the validation of standard curves (0.1, 1, 5, 10, 50, 100, 500, 800, and 1200 ng/mL for oral; 10, 50, 100, 500, 800, 1200, 2400, 4800, 9600 ng/mL for intravenous) and methods including selectivity, linearity, sensitivity, precision and stability, erianin was given to Kunming mice through oral gavage (50 mg/kg, n = 6) or tail vein injection (25 mg/kg, n = 4). A series of time points including 0, 0.083, 0.25, 0.5, 0.75, 1, 2, 3, 4, and 8 h were set for blood extraction. The pharmacokinetic parameters were analyzed using DAS 2.0. Absolute bioavailability (F%) = (AUCoral × Div)/(AUCiv × Doral) × 100%.

[12] = molecular target: T9, SAPK2b(h) (Homo sapiens, UniProt Q15759); experiment: KinaseProfiler enzyme profiling; format: biochemical
T9 construct: purchased Eurofins KinaseProfiler
Summary of the method: as §4

[13] = molecular target: T10, PAK6(h) (Homo sapiens, UniProt Q9NQU5); experiment: KinaseProfiler enzyme profiling; format: biochemical
T10 construct: purchased Eurofins KinaseProfiler
Summary of the method: as §4

[14] = molecular target: T11, CDK7/cyclinH/MAT1(h) (Homo sapiens, UniProt P50613); experiment: KinaseProfiler enzyme profiling; format: biochemical
T11 construct: purchased Eurofins KinaseProfiler
Summary of the method: as §4

[15] = molecular target: T12, CDK12/cyclinK(h) (Homo sapiens, UniProt Q9NYV4); experiment: KinaseProfiler enzyme profiling; format: biochemical
T12 construct: purchased Eurofins KinaseProfiler
T12 sequence (Q9NYV4 whole entry): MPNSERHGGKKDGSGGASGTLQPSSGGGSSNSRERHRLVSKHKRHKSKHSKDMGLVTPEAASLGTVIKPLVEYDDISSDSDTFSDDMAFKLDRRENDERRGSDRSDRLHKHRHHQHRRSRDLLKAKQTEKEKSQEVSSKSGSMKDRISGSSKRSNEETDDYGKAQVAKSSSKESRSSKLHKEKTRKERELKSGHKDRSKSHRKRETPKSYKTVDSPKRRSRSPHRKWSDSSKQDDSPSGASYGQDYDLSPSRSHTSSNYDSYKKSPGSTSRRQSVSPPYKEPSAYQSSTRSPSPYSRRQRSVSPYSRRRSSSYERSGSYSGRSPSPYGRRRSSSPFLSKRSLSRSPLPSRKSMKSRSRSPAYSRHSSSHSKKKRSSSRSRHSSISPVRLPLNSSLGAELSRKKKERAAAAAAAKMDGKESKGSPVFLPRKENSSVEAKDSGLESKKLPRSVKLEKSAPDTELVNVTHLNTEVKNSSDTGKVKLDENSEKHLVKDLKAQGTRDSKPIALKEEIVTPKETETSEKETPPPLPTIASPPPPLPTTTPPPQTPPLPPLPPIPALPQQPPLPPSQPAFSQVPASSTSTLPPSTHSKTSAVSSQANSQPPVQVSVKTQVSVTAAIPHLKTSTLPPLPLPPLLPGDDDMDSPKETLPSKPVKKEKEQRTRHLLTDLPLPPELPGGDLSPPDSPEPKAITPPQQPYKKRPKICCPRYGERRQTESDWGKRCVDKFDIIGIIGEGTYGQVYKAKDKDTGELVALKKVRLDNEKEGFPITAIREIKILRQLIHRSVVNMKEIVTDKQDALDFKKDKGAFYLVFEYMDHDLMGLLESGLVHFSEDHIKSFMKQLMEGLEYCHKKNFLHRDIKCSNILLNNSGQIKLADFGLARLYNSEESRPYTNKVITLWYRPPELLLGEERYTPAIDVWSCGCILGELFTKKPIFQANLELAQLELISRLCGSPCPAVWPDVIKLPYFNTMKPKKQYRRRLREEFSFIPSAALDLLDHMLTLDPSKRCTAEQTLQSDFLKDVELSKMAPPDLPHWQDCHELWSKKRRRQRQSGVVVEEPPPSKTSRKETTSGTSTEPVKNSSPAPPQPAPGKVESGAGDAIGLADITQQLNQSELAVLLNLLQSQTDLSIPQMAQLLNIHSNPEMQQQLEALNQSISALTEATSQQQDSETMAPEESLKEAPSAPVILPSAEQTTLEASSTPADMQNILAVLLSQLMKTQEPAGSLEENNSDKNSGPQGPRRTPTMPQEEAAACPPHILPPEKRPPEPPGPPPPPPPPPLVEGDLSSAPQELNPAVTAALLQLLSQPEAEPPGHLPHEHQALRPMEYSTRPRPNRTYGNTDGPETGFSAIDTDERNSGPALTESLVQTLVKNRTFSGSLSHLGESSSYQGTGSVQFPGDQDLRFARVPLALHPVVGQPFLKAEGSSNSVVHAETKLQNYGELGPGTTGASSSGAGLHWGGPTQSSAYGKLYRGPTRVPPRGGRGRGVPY
T12 sequence (O75909 whole entry partner): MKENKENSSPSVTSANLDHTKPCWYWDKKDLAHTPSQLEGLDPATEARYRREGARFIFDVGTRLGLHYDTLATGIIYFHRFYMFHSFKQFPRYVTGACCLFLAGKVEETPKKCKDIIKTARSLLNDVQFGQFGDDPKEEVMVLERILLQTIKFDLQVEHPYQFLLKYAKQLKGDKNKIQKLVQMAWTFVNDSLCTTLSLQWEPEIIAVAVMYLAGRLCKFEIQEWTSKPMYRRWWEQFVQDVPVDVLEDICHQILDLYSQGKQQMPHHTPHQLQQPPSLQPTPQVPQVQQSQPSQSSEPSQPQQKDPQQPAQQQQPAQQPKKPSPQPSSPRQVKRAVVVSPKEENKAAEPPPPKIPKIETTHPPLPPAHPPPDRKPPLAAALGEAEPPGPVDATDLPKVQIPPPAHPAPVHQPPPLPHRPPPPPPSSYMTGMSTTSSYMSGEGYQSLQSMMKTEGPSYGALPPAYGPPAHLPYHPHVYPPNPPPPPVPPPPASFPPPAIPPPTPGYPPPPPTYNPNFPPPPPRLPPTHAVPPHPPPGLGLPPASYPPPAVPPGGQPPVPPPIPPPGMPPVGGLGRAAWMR
Summary of the method: as §4

[16] = molecular target: T13, TAO1(h) (Homo sapiens, UniProt Q7L7X3); experiment: KinaseProfiler enzyme profiling; format: biochemical
T13 construct: purchased Eurofins KinaseProfiler
Summary of the method: as §4

[17] = molecular target: T14, ATR/ATRIP(h) (Homo sapiens, UniProt Q13535); experiment: KinaseProfiler enzyme profiling; format: biochemical
T14 construct: purchased Eurofins KinaseProfiler
Summary of the method: as §4

[18] = molecular target: T15, SAPK2a(h) (Homo sapiens, UniProt Q16539); experiment: KinaseProfiler enzyme profiling; format: biochemical
T15 construct: purchased Eurofins KinaseProfiler
Summary of the method: as §4

[19] = molecular target: T16, NEK3(h) (Homo sapiens, UniProt P51956); experiment: KinaseProfiler enzyme profiling; format: biochemical
T16 construct: purchased Eurofins KinaseProfiler
Summary of the method: as §4

[20] = molecular target: T17, Aurora-A(h) (Homo sapiens, UniProt O14965); experiment: KinaseProfiler enzyme profiling; format: biochemical
T17 construct: purchased Eurofins KinaseProfiler
T17 sequence (O14965 whole entry): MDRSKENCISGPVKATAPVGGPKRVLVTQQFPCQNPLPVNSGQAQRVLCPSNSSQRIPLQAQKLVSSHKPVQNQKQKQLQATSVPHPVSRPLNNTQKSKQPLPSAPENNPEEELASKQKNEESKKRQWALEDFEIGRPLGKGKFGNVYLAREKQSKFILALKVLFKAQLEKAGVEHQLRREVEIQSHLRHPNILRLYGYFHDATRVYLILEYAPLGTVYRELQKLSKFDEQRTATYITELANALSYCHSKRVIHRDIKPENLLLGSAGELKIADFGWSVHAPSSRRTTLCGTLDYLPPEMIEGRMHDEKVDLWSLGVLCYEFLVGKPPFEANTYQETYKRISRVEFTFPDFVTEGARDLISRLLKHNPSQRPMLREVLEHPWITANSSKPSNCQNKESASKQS
Summary of the method: as §4

[21] = molecular target: T18, cKit(h) (Homo sapiens, UniProt P10721); experiment: KinaseProfiler enzyme profiling; format: biochemical
T18 construct: purchased Eurofins KinaseProfiler
Summary of the method: as §4

[22] = molecular target: T19, ARK5(h) (Homo sapiens, UniProt O60285); experiment: KinaseProfiler enzyme profiling; format: biochemical
T19 construct: purchased Eurofins KinaseProfiler
Summary of the method: as §4

[23] = molecular target: T20, Flt4(h) (Homo sapiens, UniProt P35916); experiment: KinaseProfiler enzyme profiling; format: biochemical
T20 construct: purchased Eurofins KinaseProfiler
Summary of the method: as §4

[24] = molecular target: T21, FGFR2(h) (Homo sapiens, UniProt P21802); experiment: KinaseProfiler enzyme profiling; format: biochemical
T21 construct: purchased Eurofins KinaseProfiler
Summary of the method: as §4

[25] = molecular target: T22, CK1γ3(h) (Homo sapiens, UniProt Q9Y6M4); experiment: KinaseProfiler enzyme profiling; format: biochemical
T22 construct: purchased Eurofins KinaseProfiler
Summary of the method: as §4

[26] = molecular target: T23, EGFR(L858R)(h) (Homo sapiens, UniProt P00533, L858R); experiment: KinaseProfiler enzyme profiling; format: biochemical
T23 construct: purchased Eurofins KinaseProfiler
Summary of the method: as §4

[27] = molecular target: T24, DCAMKL3(h) (Homo sapiens, UniProt Q9C098); experiment: KinaseProfiler enzyme profiling; format: biochemical
T24 construct: purchased Eurofins KinaseProfiler
T24 sequence (Q9C098 whole entry): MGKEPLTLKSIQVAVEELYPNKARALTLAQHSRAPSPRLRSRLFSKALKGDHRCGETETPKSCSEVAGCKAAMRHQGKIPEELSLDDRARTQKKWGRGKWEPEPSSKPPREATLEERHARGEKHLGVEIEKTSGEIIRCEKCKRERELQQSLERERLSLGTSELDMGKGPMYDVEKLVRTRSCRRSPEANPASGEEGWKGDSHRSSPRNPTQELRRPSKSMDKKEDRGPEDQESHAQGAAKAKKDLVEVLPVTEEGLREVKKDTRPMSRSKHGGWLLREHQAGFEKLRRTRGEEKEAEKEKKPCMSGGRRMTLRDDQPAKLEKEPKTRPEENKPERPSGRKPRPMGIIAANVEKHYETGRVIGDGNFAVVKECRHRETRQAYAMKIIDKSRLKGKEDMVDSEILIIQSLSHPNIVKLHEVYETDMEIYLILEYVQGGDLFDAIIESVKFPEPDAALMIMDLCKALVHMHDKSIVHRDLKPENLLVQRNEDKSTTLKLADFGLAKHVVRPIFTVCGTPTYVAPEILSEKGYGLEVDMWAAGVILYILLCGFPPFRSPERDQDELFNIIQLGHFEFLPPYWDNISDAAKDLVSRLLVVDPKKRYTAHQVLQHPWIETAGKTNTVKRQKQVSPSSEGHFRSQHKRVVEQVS
Summary of the method: as §4

[28] = molecular target: T25, DYRK2(h) (Homo sapiens, UniProt Q92630); experiment: KinaseProfiler enzyme profiling; format: biochemical
T25 construct: purchased Eurofins KinaseProfiler
Summary of the method: as §4

Structure (SMILES): COc1ccc(CCc2cc(OC)c(OC)c(OC)c2)cc1O [Erianin]
cytotoxicity [1]: no toxicity
cytotoxicity [2]: no toxicity
activity at 0.1 µM [3]: 83%
activity at 0.1 µM [4]: 91%
activity at 0.1 µM [5]: 91%
activity at 0.1 µM [6]: 101%
activity at 0.1 µM [7]: 122%
activity at 0.1 µM [8]: 108%
activity at 0.1 µM [9]: 96%
activity at 0.1 µM [10]: 90%
bioavailability [11]: 8 ± 1.1%

activity at 10 µM [12]: 102%
activity at 10 µM [13]: 104%
activity at 10 µM [14]: 69%
activity at 10 µM [15]: 98%
activity at 10 µM [16]: 64%
activity at 10 µM [17]: 76%
activity at 10 µM [18]: 141%
activity at 10 µM [19]: 64%
Structure (SMILES): C=C1C(=O)[C@]23[C@H](O)[C@H]1CC[C@H]2[C@@]12CO[C@]3(O)[C@@H](O)[C@@H]1C(C)(C)CC[C@@H]2O [Oridonin]

activity at 10 µM [20]: 124%
activity at 10 µM [21]: 93%
activity at 10 µM [22]: 97%
activity at 10 µM [23]: 87%
activity at 10 µM [24]: 110%
activity at 10 µM [25]: 104%
activity at 10 µM [26]: 107%
activity at 10 µM [27]: 109%
activity at 10 µM [28]: 97%
Structure (SMILES): COc1cc2oc(-c3ccc(O)c(O)c3)cc(=O)c2c(O)c1OC [Cirsiliol]
